Like-named read-outs stand apart in the source and are kept apart here.
Legend:
IL-1β = assay: THP-1 AlphaLISA IL-1β cytokine assay (differentiated THP-1 cells); type: cell-based; settings: Homo sapiens
Outline: (§1)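 PMA-differentiated THP-1 cells were preincubated 30 min with compound, stimulated with LPS for 24 h, then nigericin for 1 h, all at 37 °C. Supernatant IL-1β and IL-6 were quantified by AlphaLISA. % inhibition is normalised to +LPS and −LPS controls per cytokine.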

plasma protein [1] = assay: Plasma protein binding (rapid equilibrium dialysis), mouse; type: in vitro ADME; settings: 5 μM compound, 4 hours
Protocol: (§2) Equilibrium dialysis is an accurate and reliable method for determining protein binding affinities to chemical or biological substances of low molecular weight. The Rapid Equilibrium Dialysis (RED) plate is specifically designed and extensively validated for plasma protein binding assays. It is also designed for minimal non-specific binding (Thermo Fisher).
(§3) • Phosphate buffered saline (PBS) pH 7.4 was prepared using PBS tablets as per the manufacturer's instructions. • Compound and marker stocks were prepared at 10 mM in DMSO and further diluted to 100× the assay concentration in DMSO. • Plasma was thawed on the day of the assay and centrifuged. The supernatant was transferred to a fresh vessel and the pH adjusted to pH 7.4 using lactic acid or sodium hydroxide.
(§4) Pre-prepared 100× assay compound stocks were spiked 1:100 into pH adjusted plasma. 200 μL of spiked plasma was added to the red compartment of the rapid equilibrium dialysis (RED) device for each replicate. 350 μL of PBS was added to the buffer compartment. The plate was sealed with a breathable lid and shaken on an orbital shaker in a 37° C. incubator, 5% CO2 for 4 hours.
(§5) Standard final incubation conditions were 5 μM compound in plasma containing 1% (v/v) DMSO.
(§6) A sample of the plasma/compound mixture was taken, mixed with an equal volume of PBS and quenched 1:3 with ice-cold acetonitrile containing internal standard. Methanol was also added to matrix match with calibration curve samples. This was the t=0 sample.
(§7) Post-incubation, plasma and buffer were sampled from their respective RED device compartments into separate tubes containing an equal volume of the alternate matrix for each replicate. Samples were quenched 1:3 with ice-cold acetonitrile containing internal standard. Methanol was also added to matrix match with calibration curve samples.
Calibration curves were prepared in methanol and spiked such that the matrix was equivalent to the assay samples. […]
(§8) Fraction unbound, percent bound and percent recovery were the standard assay parameters reported. They were calculated using the following equations: […]

IL-6 = assay: THP-1 AlphaLISA IL-6 cytokine assay (differentiated THP-1 cells); type: cell-based; settings: Homo sapiens
Outline: as §1

[2] = test system: cryo-preserved hepatocytes; assay: Hepatocyte stability assay, human; type: in vitro ADME; settings: human, hepatocytes
Outline: (§9)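 Cryopreserved hepatocytes at 0.5×10^6 cells/mL in Leibovitz buffer, 37 °C, with 10 μM compound (0.1% DMSO), duplicate. Samples at 0-60 min, acetonitrile quench, LC-MS/MS; intrinsic clearance and half-life from ln % remaining versus time, with buffer-only incubations as control.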

[3] = Hepatocyte stability assay, human; type: in vitro ADME; settings: human, hepatocytes, T½
Outline: as §9

[4] = test system: cryo-preserved hepatocytes; assay: Hepatocyte stability assay, mouse; type: in vitro ADME; settings: mouse, hepatocytes
Outline: as §9

[5] = Hepatocyte stability assay, mouse; type: in vitro ADME; settings: mouse, hepatocytes, T½
Outline: as §9

[6] = test system: NRF2 (nuclear factor erythroid 2-related factor 2); assay: NRF2 +/-GSH activation assay (DiscoverX PathHunter NRF2 translocation kit, U2OS cells); type: cell-based; settings: Homo sapiens
plasma protein [7] = assay: Plasma protein binding (rapid equilibrium dialysis), human; type: in vitro ADME; settings: for Binding (%): Human plasma, 5 μM compound, 4 hours
Protocol: as §2, §3, §4, §5, §6, §7
Calibration curves were prepared in methanol and spiked such that the matrix was equivalent to the assay samples.
Quenched samples were mixed thoroughly and protein precipitated at −20° C. for a minimum of 12 hours. Samples were then centrifuged at 4° C. Supernatants were transferred to a fresh 96 well plate for analysis.
Positive control markers were included.
as §8
An example compound of formula (I) was tested in this assay. Reference Example 2 (RE2) (which corresponds to Example 49 in WO2020/222011 (Sitryx Therapeutics, 2020)) was used as a comparator compound.

Which IC50 (IL-1β; THP-1, differentiated THP-1 cells, LPS 24 hr then Nigericin 1 hour, read-out: IL-1β (IC50)) does the source give for C=C(CC(=O)NC(C)(C)c1ccc(C(F)(F)F)cc1)C(=O)O [Example 4, 2-methylene-4-oxo-4-((2-(4-(trifluoromethyl)phenyl)propan-2-yl)amino)butanoic acid] here?
Its IC50 is 3.4 µM.

What about the IC50 (IL-1β; THP-1, differentiated THP-1 cells, footnote a: data from repeated experiments, read-out: IL-1β (IC50), data from repeated experiments) of the same compound?
Its IC50 is 3.9 µM.

And the “Binding (%)” value (plasma protein [1])?
The value was 83.7%.

And the IC50 (IL-6; THP-1, differentiated THP-1 cells, LPS 24 hr then Nigericin 1 hour, read-out: IL-6 (IC50))?
Its IC50 is greater than 63.1 µM.

What about the Clint [2] of the same compound?
The Clint was less than 3 μL min^−1 10^−6 cells.

And the T½ ([2]; 10 μM)?
The T½ was greater than 7.67 h.

What about the half-life at 10 μM [3] of the same compound?
Its half-life at 10 μM is 6.5 h.

What about the Clint [4] of the same compound?
Its Clint is 3 μL min^−1 10^−6 cells.

And the half-life at 10 μM [5]?
Its half-life at 10 μM is greater than 7.67 h.

What about the Emax ([6]; U2OS, +GSH, normalised to dimethyl fumarate high control, read-out: NRF2 activation Emax, +GSH) of the same compound?
Its Emax is 0%.

What about the Emax ([6]; U2OS, −GSH, normalised to dimethyl fumarate high control, read-out: NRF2 activation Emax, −GSH) of the same compound?
Its Emax is 1%.

And the EC50 ([6]; +GSH, U2OS PathHunter cells, 6 hours, read-out: NRF2 activation EC50, +GSH)?
The EC50 was greater than 100 µM.

And the EC50 ([6]; −GSH, U2OS PathHunter cells, 6 hours, read-out: NRF2 activation EC50, −GSH)?
Its EC50 is greater than 100 µM.

What about the “Binding (%)” value (plasma protein [7]) of the same compound?
Its value is 89.2%.

For C=C(CC(=O)N[C@@H](C)c1ccc(C(F)(F)F)cc1)C(=O)O [Example 3, (S)-2-methylene-4-oxo-4-((1-(4-(trifluoromethyl)phenyl)ethyl)amino)butanoic acid], which IC50 (IL-1β; THP-1, read-out: IL-1β (IC50)) is on record?
Its IC50 is 2.2 µM.

And the IC50 (IL-1β; THP-1, read-out: IL-1β (IC50), data from repeated experiments)?
Its IC50 is 4 µM.

And the “Binding (%)” value (plasma protein [1])?
The value was 86.8%.

What about the IC50 (IL-6; THP-1, read-out: IL-6 (IC50)) of the same compound?
Its IC50 is greater than 82.5 µM.

And the Clint [2]?
Its Clint is 4 μL min^−1 10^−6 cells.

What about the half-life at 10 μM [3] of the same compound?
The half-life at 10 μM was greater than 7.67 h.

What about the half-life at 10 μM ([3]; data from repeated experiments) of the same compound?
The half-life at 10 μM was 5.97 h.

What about the Clint [4] of the same compound?
Its Clint is less than 3 μL min^−1 10^−6 cells.

And the half-life at 10 μM [5]?
Its half-life at 10 μM is 6.7 h.

What about the half-life at 10 μM ([5]; data from repeated experiments) of the same compound?
Its half-life at 10 μM is greater than 7.67 h.

And the EC50 ([6]; U2OS, 6 h, read-out: NRF2 activation EC50, +GSH)?
Its EC50 is greater than 100 µM.

And the EC50 ([6]; U2OS, 6 h, read-out: NRF2 activation EC50, −GSH)?
Its EC50 is greater than 100 µM.

And the Emax ([6]; U2OS, read-out: NRF2 activation Emax, +GSH)?
The Emax was 0%.

What about the Emax ([6]; U2OS, read-out: NRF2 activation Emax, −GSH) of the same compound?
The Emax was 0%.

And the “Binding (%)” value (plasma protein [7])?
Its value is 89.0%.

What about the “plasma protein binding compared to prior art ester compound (in words)” value (plasma protein [7]; Table 4, human and mouse plasma) of the same compound?
The value was “lower plasma protein binding”.

With C=C(CC(=O)OCCCCCCCC)C(=O)OCC(=O)O [RE2, reference compound] as the compound, how does the “Binding (%)” value (plasma protein [1]) read?
The value was greater than 99%.

And the “Binding (%)” value (plasma protein [7])?
Its value is greater than 99%.

Reference: US20240245691A1 (Sitryx Therapeutics Limited, priority 2021, published 2024)
